Measured values taken from patent US5350762A, “Tetrahydrocyclopent[B]indole methanamines and related compounds” (priority 1993, dated 1994).
Structures can show the parent of a compound that is named as a salt.

What was measured:
[1] = target: T1, acetylcholinesterase (AChE) (Rattus norvegicus, UniProt P37136); experiment: In vitro inhibition of acetylcholinesterase activity in rat striatum; type: biochemical, Rat (male Wistar)
T1 construct: corpora striata dissected free, weighed and homogenized in 19 volumes; from tissue; host or cells: male Wistar rat corpora striata, whole homogenate
T1 sequence (P37136 32-614): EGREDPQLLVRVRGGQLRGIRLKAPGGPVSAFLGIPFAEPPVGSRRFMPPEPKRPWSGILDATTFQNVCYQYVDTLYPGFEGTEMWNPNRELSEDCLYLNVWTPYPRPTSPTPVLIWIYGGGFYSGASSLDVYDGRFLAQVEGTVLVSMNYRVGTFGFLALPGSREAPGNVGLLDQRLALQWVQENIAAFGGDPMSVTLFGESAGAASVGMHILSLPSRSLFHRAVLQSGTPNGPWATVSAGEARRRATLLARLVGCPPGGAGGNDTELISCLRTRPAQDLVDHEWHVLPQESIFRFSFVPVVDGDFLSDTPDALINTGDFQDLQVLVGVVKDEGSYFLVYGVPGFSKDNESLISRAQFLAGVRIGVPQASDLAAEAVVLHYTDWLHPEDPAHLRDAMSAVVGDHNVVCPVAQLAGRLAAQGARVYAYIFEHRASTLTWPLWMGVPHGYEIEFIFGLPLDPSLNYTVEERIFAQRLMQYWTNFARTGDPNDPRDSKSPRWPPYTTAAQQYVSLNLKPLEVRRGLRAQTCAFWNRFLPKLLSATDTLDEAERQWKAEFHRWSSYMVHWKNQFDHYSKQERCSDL
Source text: Cholinesterase Inhibition Assay
Cholinesterases are found throughout the body, both in the brain and in serum. However, only brain acetylcholinesterase (AChE) distribution is correlated with central cholinergic innervation.
In Vitro Inhibition of Acetylcholinesterase Activity in Rat Striatum
The method described below was used in this invention for assaying cholinesterase activity.
1. 0.05M Phosphate buffer, pH 7.2
(c) add (a) to (b) until pH reaches 7.2
4. […] If active, IC50 values are determined from the inhibitory activity of subsequent concentrations.
Enzyme activity is measured with the Beckman DU-50 spectrophotometer. This method can be used for IC50 determinations and for measuring kinetic constants.
Reagents are added to the blank and sample cuvettes as follows:
Blank values are determined for each run to control for non-enzymatic hydrolysis of substrate and these values are automatically subtracted by the kindata program available on kinetics soft-pac module. This program also calculates the rate of absorbance change for each cuvette.
Substrate concentration is 10 mM diluted 1:2 in assay yielding final concentration of 5 mM. DTNB concentration is 0.5 mM yielding 0.25 mM final concentration. [formula] IC50 values are calculated from log-probit analysis

[2] = target: T2, Type A monoamine oxidase (MAO-A) (Rattus norvegicus, UniProt P21396); experiment: Inhibition of Type A monoamine oxidase activity in rat brain synaptosomes; type: biochemical, Rat (male Wistar); conditions: [3H]-5HT substrate 200 μM, 15 min preincubation, 30 min at 37° C., pH 7.4, read-out: Inhibitory Concentration - IC50, Type-A
T2 construct: served as the tissue source for mitochondrial MAO; from tissue; host or cells: male Wistar rat whole brain minus cerebellum, P2 pellet (18,000 g)
T2 sequence (P21396 1-526): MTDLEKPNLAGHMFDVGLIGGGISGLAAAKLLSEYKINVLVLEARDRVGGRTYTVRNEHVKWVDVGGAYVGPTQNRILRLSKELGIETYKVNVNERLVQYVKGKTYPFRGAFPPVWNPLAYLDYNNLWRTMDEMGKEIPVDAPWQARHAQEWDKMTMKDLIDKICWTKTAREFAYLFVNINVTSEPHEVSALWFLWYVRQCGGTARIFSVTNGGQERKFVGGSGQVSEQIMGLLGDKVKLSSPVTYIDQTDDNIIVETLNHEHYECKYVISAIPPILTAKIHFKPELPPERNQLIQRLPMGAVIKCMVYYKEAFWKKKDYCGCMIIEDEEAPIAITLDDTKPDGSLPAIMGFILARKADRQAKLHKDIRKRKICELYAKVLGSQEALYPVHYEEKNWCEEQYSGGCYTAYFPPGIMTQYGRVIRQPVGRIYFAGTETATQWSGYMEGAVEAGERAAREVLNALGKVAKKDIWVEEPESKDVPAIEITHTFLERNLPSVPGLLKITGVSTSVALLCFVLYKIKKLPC
Source text: (§1) Male Wistar rats weighing 150-250 grams were sacrificed and the brains rapidly removed.

[3] = target: T3, Type B monoamine oxidase (MAO-B) (Rattus norvegicus, UniProt P19643); experiment: Inhibition of Type B monoamine oxidase activity in rat brain synaptosomes; type: biochemical, Rat (male Wistar); conditions: [14C]-PEA substrate 200 μM, 15 min preincubation, 30 min at 37° C., pH 7.4, read-out: Inhibitory Concentration - IC50, Type-B
T3 construct: served as the tissue source for mitochondrial MAO; from tissue; host or cells: male Wistar rat whole brain minus cerebellum, P2 pellet (18,000 g)
T3 sequence (P19643 1-520): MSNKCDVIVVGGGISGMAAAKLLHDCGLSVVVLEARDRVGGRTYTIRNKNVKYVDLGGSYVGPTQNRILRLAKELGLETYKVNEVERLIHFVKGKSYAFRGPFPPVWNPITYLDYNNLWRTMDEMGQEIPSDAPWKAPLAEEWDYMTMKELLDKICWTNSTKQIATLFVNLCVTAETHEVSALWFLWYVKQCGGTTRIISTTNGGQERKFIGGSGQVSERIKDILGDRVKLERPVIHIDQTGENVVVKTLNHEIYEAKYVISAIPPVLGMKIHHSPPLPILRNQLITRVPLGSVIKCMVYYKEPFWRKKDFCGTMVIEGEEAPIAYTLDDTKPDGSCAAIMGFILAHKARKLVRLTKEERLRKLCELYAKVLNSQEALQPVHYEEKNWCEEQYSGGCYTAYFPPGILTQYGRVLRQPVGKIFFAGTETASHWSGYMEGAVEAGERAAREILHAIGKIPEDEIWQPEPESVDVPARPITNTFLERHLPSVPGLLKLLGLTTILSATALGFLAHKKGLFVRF
Source text: as §1

[4] = test system: monoamine oxidase type A and type B; conditions: in words; reference (2), Fowler and Ross 1984; cited from earlier work

Compound | IC50 [2] | IC50 [3] | selectivity of inhibition of type A / type B monoamine oxidase [4] | other results
CNC(=O)Oc1ccc2c(c1)c1c(n2C)CC(CN(C)C)C1 (centres unmarked) [1,2,3,4-Tetrahydro-2-[(dimethylamino)methyl]-4-methylcyclopent[b]indol-7-yl-methylcarbamate hydrochloride] | – | – | – | IC50 [1]: 9.6 µM
CCNCC1Cc2c(n(C)c3ccc(OC)cc23)C1 (centres unmarked) [1,2,3,4-Tetrahydro-4-methyl-7-methoxy-N-ethylcyclopent[b]indole-2-methanamine maleate] | 182 µM | 713 µM | – | –
COc1ccc2c(c1)c1c(n2C)CC(CN)C1 (centres unmarked) [1,2,3,4-Tetrahydro-7-methoxy-4-methylcyclopent[b]indole-2-methanamine hydrochloride] | 59 µM | 287 µM | – | –
C#CCN(C)CCCOc1ccc(Cl)cc1Cl [Clorgyline] | – | – | selective inhibitor of the type A enzyme | –
CC(C)NNC(=O)c1ccncc1 [iproniazid] | – | – | nonselective inhibitors | –
C#CCN(C)Cc1ccccc1 [pargyline] | – | – | selective inhibitors of the type B enzyme | –
